Data taken from patent publication US20240199702A1, “CELL-PERMEABLE CYCLIC PEPTIDES AND USES THEREOF” (Unnatural Products Inc., priority 2021, published 2024).
Where a SMILES comes first, the peptide text is derived from it. [ ]: non-standard residue; d: D form. The star is where a group is joined. Ala(4-thiazolyl) = N[C@@H](Cc1cscn1)C(=O)O; Phe(4-Cl) = N[C@@H](Cc1ccc(Cl)cc1)C(=O)O; Phe(4-F) = N[C@@H](Cc1ccc(F)cc1)C(=O)O; Ala(cPent) = N[C@@H](CC1CCCC1)C(=O)O; Cyclohexanecarbonyl = O=C(C1CCCCC1)*; NMeCba = CN[C@@H](CC1CCC1)C(=O)O; NMeF = CN[C@@H](Cc1ccccc1)C(=O)O; NMeI = CC[C@H](C)[C@H](NC)C(=O)O; NMeT = CN[C@H](C(=O)O)[C@@H](C)O; Cba = N[C@@H](CC1CCC1)C(=O)O; Nicotinoyl = O=C(c1cccnc1)*; Isovaleryl = CC(C)CC(=O)*; Methoxyacetyl = COCC(=O)*; hSer = N[C@@H](CCO)C(=O)O; NMeA = CN[C@@H](C)C(=O)O; dNMeA = CN[C@H](C)C(=O)O; Bz = O=C(c1ccccc1)*; Nme = COCCNCC(=O)O; X1 = O=C(C(F)F)*; Sar = CNCC(=O)O

Tests used:
Human MDM2 (HDM2) 1-116 = biological target: T1, Human MDM2 (HDM2) 1-116 (Homo sapiens, UniProt Q00987); assay: Fluorescence Polarization Assay 1 (MDM2/p53 peptide); format: binding; details: FAM-labeled p53 peptide, 60 minutes
T1 construct: Human MDM2 (HDM2) 1-116
T1 sequence (Q00987 1-116): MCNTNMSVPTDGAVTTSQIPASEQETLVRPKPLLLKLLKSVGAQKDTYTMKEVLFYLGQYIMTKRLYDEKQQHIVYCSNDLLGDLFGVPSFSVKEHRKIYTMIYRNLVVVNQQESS
Method: Fluorescence Polarization Assay 1
(§1) Human MDM2 (HDM2) 1-116 (20 μL) and FAM-labeled GGTSFAEYWNLLSP-NH2, 10 nM and 5 nM respectively in 10 mM Tris, 50 mM NaCl, 0.01% Tween20, and 1 mM DTT at pH 7.4 were dispensed into an opaque, black, 384 well plate. Compounds dissolved in DMSO were pin transferred (˜100-200 nL) to the 384 well plate containing the MDM2/p53 solution. After incubation for 60 minutes, the fluorescence polarization was read on a Molecular Devices SpectraMax plate reader equipped with a Fluorescein FP cartridge. In addition to probe alone (positive control) and probe/MDM2 (negative control), a titration of linear p53(18-26) was included on every plate as an additional control. IC50 values were fit using either Prism or Collaborative Drug Discovery.

Human MDM4 (HDM4) 1-114 = biological target: T2, Human MDM4 (HDM4) 1-114 (Homo sapiens, UniProt O15151); assay: Fluorescence Polarization Assay 2 (MDM4/p53 peptide); format: binding; details: FAM-labeled p53 peptide, 60 minutes
T2 construct: Human MDM4 (HDM4) 1-114
T2 sequence (O15151 1-114): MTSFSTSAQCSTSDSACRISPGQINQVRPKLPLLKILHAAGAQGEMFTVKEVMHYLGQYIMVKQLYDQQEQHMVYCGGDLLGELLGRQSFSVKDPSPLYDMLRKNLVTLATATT
Method: Fluorescence Polarization Assay 2
as §1, with “MDM4 (HDM4) 1-114” for “MDM2 (HDM2) 1-116”, “GGTSFAEYWNLLSP —NH2, 20” for “GGTSFAEYWNLLSP-NH2, 10”, “(−100-200” for “(˜100-200”, “MDM4/p53” for “MDM2/p53”, “probe/MDM4” for “probe/MDM2”

SMILES	IC50 (Human MDM2 (HDM2) 1-116)	IC50 (Human MDM4 (HDM4) 1-114)
COCC[C@@H]1NC(=O)[C@H]2CCCN2C(=O)[C@H](Cc2ccccc2)N(C)C(=O)[C@H](Cc2ccc(Cl)cc2)NC(=O)[C@H]([C@@H](C)OC(=O)C2CCCCC2)NC(=O)[C@H](Cc2ccc(F)cc2)NC(=O)CN(CCOC)C(=O)[C@@H](C)N(C)C(=O)[C@H](Cc2cscn2)NC(=O)[C@H](C)N(C)C1=O [compound 8] (cyclo([Ala(4-thiazolyl)][dNMeA][Nme][Phe(4-F)]T(Cyclohexanecarbonyl)[Phe(4-Cl)][NMeF][dP][hSer](Me)[NMeA]))	≥ 0.1 µM	≥ 0.1 µM
COCC[C@@H]1NC(=O)[C@H]2CCCN2C(=O)[C@H](Cc2ccccc2)N(C)C(=O)[C@H](Cc2ccc(Cl)cc2)NC(=O)[C@H]([C@@H](C)O)NC(=O)[C@H](Cc2ccc(F)cc2)NC(=O)CN(CCOC)C(=O)[C@@H](C)N(C)C(=O)[C@H](Cc2cscn2)NC(=O)[C@H](C)N(C)C1=O [compound 18] (cyclo([hSer](Me)[NMeA][Ala(4-thiazolyl)][dNMeA][Nme][Phe(4-F)]T[Phe(4-Cl)][NMeF][dP]))	< 0.025 µM	0.025 to 0.05 µM
COCC[C@@H]1NC(=O)[C@H]2CCCN2C(=O)[C@H](Cc2ccccc2)N(C)C(=O)[C@H](Cc2ccc(Cl)cc2)NC(=O)[C@H]([C@@H](C)OC(=O)C(F)F)NC(=O)[C@H](Cc2ccc(F)cc2)NC(=O)CN(CCOC)C(=O)[C@@H](C)N(C)C(=O)[C@H](Cc2cscn2)NC(=O)[C@H](C)N(C)C1=O [compound 7] (cyclo([Ala(4-thiazolyl)][dNMeA][Nme][Phe(4-F)]T(X1)[Phe(4-Cl)][NMeF][dP][hSer](Me)[NMeA]))	0.025 to 0.05 µM	0.05 to 0.1 µM
COCC[C@@H]1NC(=O)[C@H]2CCCN2C(=O)[C@H](Cc2ccccc2)N(C)C(=O)[C@H](Cc2ccc(Cl)cc2)NC(=O)[C@H]([C@@H](C)OC)N(C)C(=O)[C@H](Cc2ccc(F)cc2)NC(=O)CN(CCOC)C(=O)[C@@H](C)N(C)C(=O)[C@H](Cc2cscn2)NC(=O)[C@H](C)N(C)C1=O [compound 20] (cyclo([Ala(4-thiazolyl)][dNMeA][Nme][Phe(4-F)][NMeT](Me)[Phe(4-Cl)][NMeF][dP][hSer](Me)[NMeA]))	< 0.025 µM	0.05 to 0.1 µM
CC[C@H](C)[C@@H]1NC(=O)[C@H](Cc2ccc(F)cc2)NC(=O)CN(CCOC)C(=O)[C@@H](C)N(C)C(=O)[C@H](Cc2cscn2)NC(=O)[C@H](C)N(C)C(=O)[C@H](CCOC)NC(=O)[C@H]2CCCN2C(=O)[C@H](Cc2ccccc2)N(C)C(=O)[C@H](Cc2ccc(Cl)cc2)NC1=O [compound 16] (cyclo([Ala(4-thiazolyl)][dNMeA][Nme][Phe(4-F)]I[Phe(4-Cl)][NMeF][dP][hSer](Me)[NMeA]))	< 0.025 µM	0.025 to 0.05 µM
CC[C@H](C)[C@H]1C(=O)N[C@@H](Cc2ccc(Cl)cc2)C(=O)N(C)[C@@H](Cc2ccccc2)C(=O)N2CCC[C@@H]2C(=O)N[C@@H](CCOC)C(=O)N(C)[C@@H](C)C(=O)N[C@@H](Cc2cscn2)C(=O)N(C)[C@H](C)C(=O)N(CCOC)CC(=O)N[C@@H](Cc2ccc(F)cc2)C(=O)N1C [compound 17] (cyclo([Ala(4-thiazolyl)][dNMeA][Nme][Phe(4-F)][NMeI][Phe(4-Cl)][NMeF][dP][hSer](Me)[NMeA]))	< 0.025 µM	≥ 0.1 µM
COCC[C@@H]1NC(=O)[C@H]2CCCN2C(=O)[C@H](Cc2ccccc2)N(C)C(=O)[C@H](Cc2ccc(Cl)cc2)NC(=O)[C@H]([C@@H](C)OC(C)=O)NC(=O)[C@H](Cc2ccc(F)cc2)NC(=O)CN(CCOC)C(=O)[C@@H](C)N(C)C(=O)[C@H](Cc2cscn2)NC(=O)[C@H](C)N(C)C1=O [compound 1] (cyclo([Ala(4-thiazolyl)][dNMeA][Nme][Phe(4-F)]T(Ac)[Phe(4-Cl)][NMeF][dP][hSer](Me)[NMeA]))	< 0.025 µM	0.025 to 0.05 µM
COCC[C@@H]1NC(=O)[C@H]2CCCN2C(=O)[C@H](Cc2ccccc2)N(C)C(=O)[C@H](Cc2ccc(Cl)cc2)NC(=O)[C@H]([C@@H](C)OC(=O)CC(C)C)NC(=O)[C@H](Cc2ccc(F)cc2)NC(=O)CN(CCOC)C(=O)[C@@H](C)N(C)C(=O)[C@H](Cc2cscn2)NC(=O)[C@H](C)N(C)C1=O [compound 5] (cyclo([Ala(4-thiazolyl)][dNMeA][Nme][Phe(4-F)]T(Isovaleryl)[Phe(4-Cl)][NMeF][dP][hSer](Me)[NMeA]))	0.025 to 0.05 µM	0.05 to 0.1 µM
COCC[C@@H]1NC(=O)[C@H]2CCCN2C(=O)[C@H](Cc2ccccc2)N(C)C(=O)[C@H](Cc2ccc(Cl)cc2)NC(=O)[C@H](CC2CCC2)N(C)C(=O)[C@H](Cc2ccc(F)cc2)NC(=O)CN(CCOC)C(=O)[C@@H](C)N(C)C(=O)[C@H](Cc2cscn2)NC(=O)[C@H](C)N(C)C1=O [compound 9] (cyclo([Ala(4-thiazolyl)][dNMeA][Nme][Phe(4-F)][NMeCba][Phe(4-Cl)][NMeF][dP][hSer](Me)[NMeA]))	< 0.025 µM	0.05 to 0.1 µM
COCC[C@@H]1NC(=O)[C@H]2CCCN2C(=O)[C@H](Cc2ccccc2)N(C)C(=O)[C@H](Cc2ccc(Cl)cc2)NC(=O)[C@H](CC2CCCC2)NC(=O)[C@H](Cc2ccc(F)cc2)NC(=O)CN(CCOC)C(=O)[C@@H](C)N(C)C(=O)[C@H](C)N(C)C1=O [compound 15] (cyclo([Ala(cPent)][Phe(4-Cl)][NMeF][dP][hSer](Me)[NMeA][dNMeA][Nme][Phe(4-F)]))	< 0.025 µM	0.05 to 0.1 µM
COCC[C@@H]1NC(=O)[C@H]2CCCN2C(=O)[C@H](Cc2ccccc2)N(C)C(=O)[C@H](Cc2ccc(Cl)cc2)NC(=O)[C@H](CC2CCC2)NC(=O)[C@H](Cc2ccc(F)cc2)NC(=O)CN(CCOC)C(=O)[C@@H](C)N(C)C(=O)[C@H](C)N(C)C1=O [compound 14] (cyclo([Cba][Phe(4-Cl)][NMeF][dP][hSer](Me)[NMeA][dNMeA][Nme][Phe(4-F)]))	< 0.025 µM	0.025 to 0.05 µM
COCC[C@@H]1NC(=O)[C@H]2CCCN2C(=O)[C@H](Cc2ccccc2)N(C)C(=O)[C@H](Cc2ccc(Cl)cc2)NC(=O)[C@H]([C@@H](C)OC(=O)c2ccccc2)NC(=O)[C@H](Cc2ccc(F)cc2)NC(=O)CN(CCOC)C(=O)[C@@H](C)N(C)C(=O)[C@H](Cc2cscn2)NC(=O)[C@H](C)N(C)C1=O [compound 2] (cyclo([Ala(4-thiazolyl)][dNMeA][Nme][Phe(4-F)]T(Bz)[Phe(4-Cl)][NMeF][dP][hSer](Me)[NMeA]))	< 0.025 µM	< 0.025 µM
COCC[C@@H]1NC(=O)[C@H]2CCCN2C(=O)[C@H](Cc2ccccc2)N(C)C(=O)[C@H](Cc2ccc(Cl)cc2)NC(=O)[C@H]([C@@H](C)O)N(C)C(=O)[C@H](Cc2ccc(F)cc2)NC(=O)CN(CCOC)C(=O)[C@@H](C)N(C)C(=O)[C@H](Cc2cscn2)NC(=O)[C@H](C)N(C)C1=O [compound 19] (cyclo([Ala(4-thiazolyl)][dNMeA][Nme][Phe(4-F)][NMeT][Phe(4-Cl)][NMeF][dP][hSer](Me)[NMeA]))	< 0.025 µM	0.05 to 0.1 µM
COCC[C@@H]1NC(=O)[C@H]2CCCN2C(=O)[C@H](Cc2ccccc2)N(C)C(=O)[C@H](Cc2ccc(Cl)cc2)NC(=O)[C@H](C(C)C)NC(=O)[C@H](Cc2ccc(F)cc2)NC(=O)CN(C)C(=O)[C@@H](C)N(C)C(=O)[C@H](Cc2cscn2)NC(=O)[C@H](C)N(C)C1=O [compound 13] (cyclo([Ala(4-thiazolyl)][dNMeA][Sar][Phe(4-F)]V[Phe(4-Cl)][NMeF][dP][hSer](Me)[NMeA]))	< 0.025 µM	0.025 to 0.05 µM
COCC[C@@H]1NC(=O)[C@H]2CCCN2C(=O)[C@H](Cc2ccccc2)N(C)C(=O)[C@H](Cc2ccc(Cl)cc2)NC(=O)[C@H]([C@@H](C)OC)NC(=O)[C@H](Cc2ccc(F)cc2)NC(=O)CN(CCOC)C(=O)[C@@H](C)N(C)C(=O)[C@H](Cc2cscn2)NC(=O)[C@H](C)N(C)C1=O [compound 12] (cyclo([Ala(4-thiazolyl)][dNMeA][Nme][Phe(4-F)]T(Me)[Phe(4-Cl)][NMeF][dP][hSer](Me)[NMeA]))	< 0.025 µM	< 0.025 µM
COCC[C@@H]1NC(=O)[C@H]2CCCN2C(=O)[C@H](Cc2ccccc2)N(C)C(=O)[C@H](Cc2ccc(Cl)cc2)NC(=O)[C@H]([C@@H](C)OC(=O)COC)NC(=O)[C@H](Cc2ccc(F)cc2)NC(=O)CN(CCOC)C(=O)[C@@H](C)N(C)C(=O)[C@H](Cc2cscn2)NC(=O)[C@H](C)N(C)C1=O [compound 4] (cyclo([Ala(4-thiazolyl)][dNMeA][Nme][Phe(4-F)]T(Methoxyacetyl)[Phe(4-Cl)][NMeF][dP][hSer](Me)[NMeA]))	< 0.025 µM	0.025 to 0.05 µM
COCC[C@@H]1NC(=O)[C@H]2CCCN2C(=O)[C@H](Cc2ccccc2)N(C)C(=O)[C@H](Cc2ccc(Cl)cc2)NC(=O)[C@H]([C@@H](C)OC(=O)c2cccnc2)NC(=O)[C@H](Cc2ccc(F)cc2)NC(=O)CN(CCOC)C(=O)[C@@H](C)N(C)C(=O)[C@H](Cc2cscn2)NC(=O)[C@H](C)N(C)C1=O [compound 3] (cyclo([Ala(4-thiazolyl)][dNMeA][Nme][Phe(4-F)]T(Nicotinoyl)[Phe(4-Cl)][NMeF][dP][hSer](Me)[NMeA]))	< 0.025 µM	0.05 to 0.1 µM
